Where “and” joins values, the source holds several entries; their conditions need not be identical. Identical values can stand only once. Like-named read-outs stand apart in the source and are kept apart here.
Tests used:
[1] = Plasma PK after single IV bolus dose in rats; format: in vivo, rat
[2] = tested on: cell attachment and SEB IL-2 release; assay: cells; format: cell-based
[3] = tested on: HuT 78 cell adhesion to 5dICAM-Ig; assay: Human T-cell adhesion assay (HuT 78 cell adhesion to 5dICAM-Ig); format: cell-based; conditions: HuT78, HuT 78 cells, read-out: EC50, inhibition of T-cell adhesion
Experimental: The T-cell adhesion assay was performed using the human T-lymphoid cell line HuT 78 (ATCC TIB-161). Goat anti-HuIgG(Fc) was diluted to 2 μg/ml in PBS and 96-well plates were coated with 50 μl/well at 37° C. for 1 h. Plates were washed with PBS and blocked for 1 h at room temperature with 1% BSA in PBS. 5 domain ICAM-Ig was diluted to 100 ng/ml in PBS and 50 μl/well was added to the plates O/N at 4° C. HuT 78 cells were centrifuged at 100 g and the cell pellet was treated with 5 mM EDTA for ˜5′ at 37° C. in a 5% CO2 incubator. Cells were washed in 0.14 M NaCl, 0.02 M Hepes, 0.2% glucose and 0.1 mM MnCl2 (assay buffer) and centrifuged. The cells were resuspended in assay buffer to 3.0×10^6 c/ml Inhibitors were diluted in assay buffer to a 2× final concentration and pre-incubated with HuT78 cells for 30′ at room temperature. 100 μl/well of cells and inhibitors were added to the plates and incubated at room temperature for 1 h. 100 μl/well PBS was added and the plates were sealed and centrifuged inverted at 100 g for 5′. Unattached cells were flicked out of the plate and excess PBS was blotted on a paper towel. […] The enzyme reaction was stopped with […] 50 mM glycine/5 mM EDTA and read on a platereader at […]. HUT 78 cell adhesion to 5dICAM-Ig was measured using the p-nitrophenyl n-acetyl-f3-D-glucosaminide method of Landegren, U. (1984). […]

[4] = Single dose ADME study with [14C]-compound in dogs; format: in vivo; conditions: dog, for 16 hrs
Source text: No differences in results from male and female dogs were observed.

[5] = tested on: Chinese hamster ovary (CHO) cells; assay: In vitro chromosomal aberration assay in CHO cells; format: cell-based; conditions: with and without metabolic activation; except single toxic dose 3500 μg/mL without activation
Source text: The biological relevance of this response is equivocal due to cytotoxicity.

[6] = Plasma PK after single topical ocular instillation (dogs and rabbits); conditions: baseline levels by about 4 hours
[7] = tested on: attachment of Jurkat cells to ICAM-1; assay: T-cell adhesion assay using Jurkat cells; format: cell-based, human
Experimental: A reported LFA-1 antagonist was used as the positive control.
Jurkat cells were labeled with an 8 μM solution of BCECF-AM (2′,7′-bis-(2-carboxyethyl)-5-(and-6)-carboxyfluorescein) in growth media at room temperature for 15 minutes. […] Non-adherent cells were removed by washing and centrifugation at 100 g for 1 minute. Adherent cells were determined as adherent fluorescent units on a fluorescent plate reader.

[8] = tested on: Keratoconjunctivitis Sicca (KCS); assay: Canine keratoconjunctivitis sicca (KCS) study; format: in vivo, dog
Source text: If dogs had been treated with topical CsA or tacrolimus in the previous six months, they were not enrolled. […] Animals were subjected to an ocular examination once during the initial visit and during five visits over sixteen weeks of the study (Weeks, 2, 4, 8, 12 and 16). The last OE was approximately four weeks after the last dose of the compound of Formula I and after one month of CsA treatment. The adnexa and anterior portions of both eyes were examined using an indirect opthalmoscope. The eyes were dilated with a mydriatic when applicable, to allow evaluation of the lens and fundus, including the retina. An evaluation using a modified McDonald-Shaddock scoring system was performed in conjunction with the slitlamp ocular examinations at each interval. Tears were measured using STT strips during the initial visit and each of the five follow-up visits on Weeks 2, 4, 8, 12 and 16. One strip of STT paper was used for each eye for each interval. […] The length, in mm, of wetting below the notch of the paper was recorded. Fluorescein and rose bengal staining was performed at the each of the initial and follow up examinations. Intraocular pressure measurements (IOPs) were performed using a Tono-Pet Vet® in conjunction with each of the OEs. Digital ocular images were taken before and after staining (with fluorescein and rose bengal) during each of the OEs. Conjunctival biopsies were taken at the initial (pretreatment) visit and the Week 12 visit. The second biopsy was taken more lateral (approx. 1 mm) to the initial biopsy. Following appropriate preparation a small conjunctival biopsy was taken from the ventral fornix of each eye.

[9] = Rat ocular pharmacokinetics of [14C]-compound (ocular tissue levels); format: in vivo; conditions: rat, for 16 hrs
[10] = tested on: dogs; assay: 13-week ocular toxicity study in dogs with 4-week recovery (toxicity and TK); conditions: dogs (3%)
[11] = rabbit, in vivo, topical or ocular, 0.35 mg
[12] = tested on: human mononuclear cells (PBMC) stimulated with staphylococcal enterotoxin B (SEB); assay: cells; format: cell-based
[13] = tested on: rats; assay: Respiratory function in rats, single IV bolus, head-out plethysmograph; format: in vivo, rat; conditions: any dose
[14] = single IV bolus 30.0 mg/kg, from rat safety pharmacology study

CS(=O)(=O)c1cccc(C[C@H](NC(=O)c2c(Cl)cc3c(c2Cl)CCN(C(=O)c2ccc4ccoc4c2)C3)C(=O)O)c1 [compound of Formula I]
AUC0-n ([1]; single IV bolus 10.0 mg/kg): 728 ng·h/mL | CL ([1]; single IV bolus 10.0 mg/kg): 173 mL/min/kg | Cmax ([1]; single IV bolus 10.0 mg/kg): 1056 ng/mL | MRT ([1]; single IV bolus 10.0 mg/kg): 0.920 h | T1/2 ([1]; single IV bolus 10.0 mg/kg): 3.76 h | Vss ([1]; single IV bolus 10.0 mg/kg): 9.56 L/kg | AUC0-n [1, 14]: 2345.5 ng·h/mL | Cmax [1, 14]: 5117.3 ng/mL | IC50 [2]: 0.002 µM | EC50 [3]: < 0.05 µM | levels in conjunctiva/cornea [4]: greater than 1 micromolar | induction of structural chromosomal aberrations [5]: negative for inducing structural chromosomal aberrations | time of maximum plasma concentration post-dose [6]: about 0.25 hrs | Jurkat cell attachment to ICAM-1 [7]: inhibition of Jurkat cell attachment with increasing dose | dose response curve and IC50 ([7]; compared with positive control, a reported LFA-1 antagonist): comparable to that of the known direct competitive LFA-1 antagonist | Schirmer Tear Test (OS), individual dogs ([8]; Week 1, left eye, 1% solution, 0.35 mg/eye TID): 9 mm (2×) and 0 mm (3×) and 7 mm | Schirmer Tear Test (OD), individual dogs ([8]; Week 1, right eye, 1% solution, 0.35 mg/eye TID): 8 mm (2×) and 6 mm (2×) and 0 mm and 5 mm | Schirmer Tear Test (OS), individual dogs ([8]; Week 2, left eye, 1% solution TID): 4 mm and 0 mm (2×) and 14 mm and 3 mm and 8 mm | Schirmer Tear Test (OD), individual dogs ([8]; Week 2, right eye, 1% solution TID): 10 mm and 2 mm (2×) and 11 mm (3×) | Schirmer Tear Test (OS), individual dogs ([8]; Week 4, left eye, 1% solution TID): 14 mm (2×) and 0 mm (2×) and 7 mm and 5 mm | Schirmer Tear Test (OD), individual dogs ([8]; Week 4, right eye, 1% solution TID): 15 mm and 2 mm and 0 mm and 5 mm and 10 mm (2×) | Schirmer Tear Test (OS), individual dogs ([8]; Week 8, left eye, 1% solution TID): 8 mm (2×) and 0 mm and 2 mm and 17 mm and 6 mm | Schirmer Tear Test (OD), individual dogs ([8]; Week 8, right eye, 1% solution TID): 17 mm and 1 mm and 8 mm and 7 mm (2×) and 11 mm | Schirmer Tear Test (OS), individual dogs ([8]; Week 12, left eye, 1% solution TID): 8 mm (2×) and 3 mm and 7 mm and 15 mm and 4 mm | Schirmer Tear Test (OD), individual dogs ([8]; Week 12, right eye, 1% solution TID): 16 mm and 0 mm and 8 mm and 7 mm and 13 mm and 9 mm | Schirmer Tear Test (OS), individual dogs ([8]; Week 16, left eye, four weeks after last dose and after one month of CsA 0.2% ointment): 17 mm and 3 mm and 5 mm and 16 mm and 7 mm and 19 mm | Schirmer Tear Test (OD), individual dogs ([8]; Week 16, right eye, four weeks after last dose and after one month of CsA 0.2% ointment): 18 mm and 12 mm and 8 mm (3×) and 22** mm | Maximum-Minimum Analysis, maximal change in STT, OS, individual dogs ([8]; Weeks 1-12, left eye): 7 mm (2×) and 11 mm and 3 mm and 10 mm and 6 mm | Maximum-Minimum Analysis, maximal change in STT, OD, individual dogs ([8]; Weeks 1-12, right eye): 3 mm and 8 mm (3×) and −4 mm and 5 mm | average improvement in STT, all 12 eyes ([8]; during the treatment period (12 weeks)): 4 mm | Histopathological evaluation of conjunctival biopsies taken before and after treatment ([8]; pretreatment vs Week 12): attenuation of lymphocyte accumulation | mean change in Schirmer test score over pretreatment ([8]; week 12): Significant improvement | levels in conjunctiva/cornea [9]: > 100 nM | NOAEL [10]: 1.05 mg/eye/3× per day | Mean tear AUC [11]: 18931 ng·h/mL | EC50 [12]: ≤ 0.15 µM | EC50 ([12]; read-out: EC50 Cytokine Release GM-CSF): 0.545 µM | EC50 ([12]; read-out: EC50 Cytokine Release IFNγ): 0.0016 µM | EC50 ([12]; read-out: EC50 Cytokine Release IL-1α): 0.24 µM | EC50 ([12]; read-out: EC50 Cytokine Release IL-1β): 0.36 µM | EC50 ([12]; read-out: EC50 Cytokine Release IL-2): 0.0018 µM | EC50 ([12]; read-out: EC50 Cytokine Release IL-3): 52.2 µM | EC50 ([12]; read-out: EC50 Cytokine Release IL-4): 0.143 µM | EC50 ([12]; read-out: EC50 Cytokine Release IL-5): 0.11 µM | EC50 ([12]; read-out: EC50 Cytokine Release IL-6): 43.5 µM | EC50 ([12]; read-out: EC50 Cytokine Release IL-10): 0.147 µM | EC50 ([12]; read-out: EC50 Cytokine Release IL-12p40): > 1000 µM | EC50 ([12]; read-out: EC50 Cytokine Release IL-13): 0.36 µM | EC50 ([12]; read-out: EC50 Cytokine Release IP-10): 1.16 µM | EC50 ([12]; read-out: EC50 Cytokine Release MCP-1): 0.005 µM | EC50 ([12]; read-out: EC50 Cytokine Release MIP-1α): 0.02 µM | EC50 ([12]; read-out: EC50 Cytokine Release TNF-α): 0.076 µM | respiratory function (tidal volume, respiration rate, minute volume) [13]: No adverse changes in respiratory function or adverse effects

Reference: patent publication US11028077B2, “Crystalline pharmaceutical and methods of preparation and use thereof” (NOVARTIS PHARMACEUTICALS CORPORATION, priority 2008, dated 2021)
